Measurements: the supplement of paper PMC10307832

How the values were obtained:
Assay in all cases: relative viability (nuclei count vs DMSO), 5 days (fraction); higher = more cells survive
Alpelisib + Lapatinib = compound: Cc1nc(NC(=O)N2CCC[C@H]2C(N)=O)sc1-c1ccnc(C(C)(C)C(F)(F)F)c1 [Alpelisib] + CS(=O)(=O)CCNCc1ccc(-c2ccc3ncnc(Nc4ccc(OCc5cccc(F)c5)c(Cl)c4)c3c2)o1 [Lapatinib] (partner 2 µM)
Outline: (§1)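 Cells from lung cancer lines were seeded into 1536-well plates and, one day later, dosed by pin tool. Treatments were either a single drug or a fixed dose of an anchor drug with five library-drug doses (not always all listed) in √10 steps. After 5 days, nuclei were stained in a one-step fixation (final 0.05% Triton X-100, 1% formaldehyde, 1 ug/ml Hoechst) and counted on 4× images, and relative viability is the treated-to-vehicle nuclei ratio, as the median of duplicate plates.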

OSI-027 + Luminespib = compound: COc1cccc2cc(-c3nc([C@H]4CC[C@H](C(=O)O)CC4)n4ncnc(N)c34)[nH]c12 [OSI-027] + CCNC(=O)c1noc(-c2cc(C(C)C)c(O)cc2O)c1-c1ccc(CN2CCOCC2)cc1 [Luminespib] (partner 0.01 µM)
Outline: as §1

Vemurafenib + Tozasertib = compound: CCCS(=O)(=O)Nc1ccc(F)c(C(=O)c2c[nH]c3ncc(-c4ccc(Cl)cc4)cc23)c1F [Vemurafenib] + Cc1cc(Nc2cc(N3CCN(C)CC3)nc(Sc3ccc(NC(=O)C4CC4)cc3)n2)n[nH]1 [Tozasertib] (partner 0.1 µM)
Outline: as §1

Alpelisib + Crizotinib = compound: Cc1nc(NC(=O)N2CCC[C@H]2C(N)=O)sc1-c1ccnc(C(C)(C)C(F)(F)F)c1 [Alpelisib] + C[C@@H](Oc1cc(-c2cnn(C3CCNCC3)c2)cnc1N)c1c(Cl)ccc(F)c1Cl [Crizotinib] (partner 1 µM)
Outline: as §1

UMC-11 was tested. Which relative viability (Alpelisib + Lapatinib; first compound 0.04 µM) did it give?
Its relative viability is 1.03.

What about the relative viability (Alpelisib + Lapatinib; first compound 0.1265 µM) of the same cell line?
The relative viability was 0.948.

And the relative viability (Alpelisib + Lapatinib; first compound 0.4 µM)?
Its relative viability is 1.01.

And the relative viability (Alpelisib + Lapatinib; first compound 1.265 µM)?
The relative viability was 1.02.

What about the relative viability (Alpelisib + Lapatinib; first compound 4 µM) of the same cell line?
Its relative viability is 0.875.

And the relative viability (OSI-027 + Luminespib; first compound 0.01 µM)?
The relative viability was 1.04.

And the relative viability (OSI-027 + Luminespib; first compound 0.03162 µM)?
Its relative viability is 0.949.

And the relative viability (OSI-027 + Luminespib; first compound 0.1 µM)?
Its relative viability is 0.783.

And the relative viability (OSI-027 + Luminespib; first compound 0.3162 µM)?
The relative viability was 0.637.

And the relative viability (OSI-027 + Luminespib; first compound 1 µM)?
The relative viability was 0.551.

And the relative viability (Vemurafenib + Tozasertib; first compound 0.03162 µM)?
The relative viability was 0.217.

What about the relative viability (Vemurafenib + Tozasertib; first compound 0.1 µM) of the same cell line?
Its relative viability is 0.216.

And the relative viability (Vemurafenib + Tozasertib; first compound 0.3162 µM)?
Its relative viability is 0.199.

What about the relative viability (Vemurafenib + Tozasertib; first compound 1 µM) of the same cell line?
The relative viability was 0.212.

What about the relative viability (Alpelisib + Crizotinib; first compound 0.04 µM) of the same cell line?
Its relative viability is 0.589.

And the relative viability (Alpelisib + Crizotinib; first compound 0.1265 µM)?
The relative viability was 0.516.

What about the relative viability (Alpelisib + Crizotinib; first compound 0.4 µM) of the same cell line?
Its relative viability is 0.724.

What about the relative viability (Alpelisib + Crizotinib; first compound 1.265 µM) of the same cell line?
Its relative viability is 0.688.

And the relative viability (Alpelisib + Crizotinib; first compound 4 µM)?
The relative viability was 0.536.
